# Data from ChEMBL document CHEMBL5107956, “Natural products from mangrove sediments-derived microbes: Structural diversity, bioactivities, biosynthesis, and total synthesis” (Eur J Med Chem, 2022).
# pIC50: −log10 of the molar value.
# Assays:
# HeLa = assay: Cytotoxicity against human HeLa cells assessed as cell growth inhibition by MTT assay; format: functional, cell-based
# [1] = molecular target: Angiotensin-converting enzyme (Homo sapiens, UniProt P12821); assay: Inhibition of ACE (unknown origin) using hippuryl-histidyl-leucine as substrate pre-incubated with compound for 10 mins followed by substrate addition measured after 60 mins by HPLC analysis
# Angiotensin-converting enzyme, sequence (P12821 whole entry): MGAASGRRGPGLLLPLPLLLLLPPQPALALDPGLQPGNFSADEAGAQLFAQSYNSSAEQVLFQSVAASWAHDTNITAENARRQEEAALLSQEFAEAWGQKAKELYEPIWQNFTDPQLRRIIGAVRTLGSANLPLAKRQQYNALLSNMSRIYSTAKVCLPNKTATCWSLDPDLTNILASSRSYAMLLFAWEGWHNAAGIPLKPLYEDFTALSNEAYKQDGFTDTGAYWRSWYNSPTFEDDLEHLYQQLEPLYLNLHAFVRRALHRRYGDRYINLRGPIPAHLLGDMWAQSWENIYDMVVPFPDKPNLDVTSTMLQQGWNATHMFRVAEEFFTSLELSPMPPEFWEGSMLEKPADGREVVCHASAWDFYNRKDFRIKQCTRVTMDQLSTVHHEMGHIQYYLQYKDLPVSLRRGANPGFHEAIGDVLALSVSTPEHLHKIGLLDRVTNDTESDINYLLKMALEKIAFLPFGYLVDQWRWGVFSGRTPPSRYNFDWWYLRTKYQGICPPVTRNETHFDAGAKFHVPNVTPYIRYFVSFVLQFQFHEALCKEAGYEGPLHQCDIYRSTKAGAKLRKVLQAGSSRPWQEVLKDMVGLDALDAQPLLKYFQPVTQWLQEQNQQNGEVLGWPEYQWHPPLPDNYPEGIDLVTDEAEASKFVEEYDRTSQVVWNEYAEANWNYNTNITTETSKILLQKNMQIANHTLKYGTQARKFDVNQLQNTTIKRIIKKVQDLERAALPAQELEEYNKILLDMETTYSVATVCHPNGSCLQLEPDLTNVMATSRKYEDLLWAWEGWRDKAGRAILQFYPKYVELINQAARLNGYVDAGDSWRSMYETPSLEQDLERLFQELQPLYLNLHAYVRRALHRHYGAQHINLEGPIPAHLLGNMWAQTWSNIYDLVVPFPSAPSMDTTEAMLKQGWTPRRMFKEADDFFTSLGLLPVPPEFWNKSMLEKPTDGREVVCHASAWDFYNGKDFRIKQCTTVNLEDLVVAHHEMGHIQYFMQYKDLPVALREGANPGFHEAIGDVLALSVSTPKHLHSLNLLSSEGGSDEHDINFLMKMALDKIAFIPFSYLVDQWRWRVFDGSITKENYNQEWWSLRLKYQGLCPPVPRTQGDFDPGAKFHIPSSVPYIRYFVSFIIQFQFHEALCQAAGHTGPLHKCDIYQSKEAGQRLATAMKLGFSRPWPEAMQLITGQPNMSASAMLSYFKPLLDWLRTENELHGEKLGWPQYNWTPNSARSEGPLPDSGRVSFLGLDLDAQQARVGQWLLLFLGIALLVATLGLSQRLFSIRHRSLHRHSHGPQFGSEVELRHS
# SGC-7901 = assay: Cytotoxicity against human SGC-7901 cells assessed as cell growth inhibition measured after 48 hrs by MTT assay; format: functional, cell-based; conditions: SGC-7901, 48 h
# [2] = Antioxidant activity assessed as free radical scavenging activity incubated for 30 mins by microplate reader analysis; format: functional
# HL-60 [3] = assay: Antiproliferative activity against human HL-60 cells assessed as cell growth inhibition measured after 72 hrs by CCK-8 assay; format: functional, cell-based; conditions: HL-60, 72 h
# [4] = Antiproliferative activity against human Pancreatic cancer cell assessed as cell growth inhibition measured after 24 hrs by CCK-8 assay; format: functional, cell-based
# HCT-116 [5] = assay: Cytotoxicity against human HCT-116 cells assessed as cell growth inhibition incubated for 48 hrs by CCK-8 assay; format: functional, cell-based; conditions: HCT-116, 48 h
# A549 [6] = assay: Cytotoxicity against human A549 cells assessed as cell growth inhibition incubated for 48 hrs by CCK-8 assay; format: functional, cell-based; conditions: A549, 48 h
# [7] = Antioxidant activity assessed as free radical scavenging activity incubated for 30 mins under dark condition by microplate reader analysis; format: functional
# [8] = molecular target: Rho-associated protein kinase 2 (Homo sapiens, UniProt O75116); assay: Inhibition of ROCK2 (unknown origin) by HTRF kinase assay
# Rho-associated protein kinase 2, sequence (O75116 whole entry): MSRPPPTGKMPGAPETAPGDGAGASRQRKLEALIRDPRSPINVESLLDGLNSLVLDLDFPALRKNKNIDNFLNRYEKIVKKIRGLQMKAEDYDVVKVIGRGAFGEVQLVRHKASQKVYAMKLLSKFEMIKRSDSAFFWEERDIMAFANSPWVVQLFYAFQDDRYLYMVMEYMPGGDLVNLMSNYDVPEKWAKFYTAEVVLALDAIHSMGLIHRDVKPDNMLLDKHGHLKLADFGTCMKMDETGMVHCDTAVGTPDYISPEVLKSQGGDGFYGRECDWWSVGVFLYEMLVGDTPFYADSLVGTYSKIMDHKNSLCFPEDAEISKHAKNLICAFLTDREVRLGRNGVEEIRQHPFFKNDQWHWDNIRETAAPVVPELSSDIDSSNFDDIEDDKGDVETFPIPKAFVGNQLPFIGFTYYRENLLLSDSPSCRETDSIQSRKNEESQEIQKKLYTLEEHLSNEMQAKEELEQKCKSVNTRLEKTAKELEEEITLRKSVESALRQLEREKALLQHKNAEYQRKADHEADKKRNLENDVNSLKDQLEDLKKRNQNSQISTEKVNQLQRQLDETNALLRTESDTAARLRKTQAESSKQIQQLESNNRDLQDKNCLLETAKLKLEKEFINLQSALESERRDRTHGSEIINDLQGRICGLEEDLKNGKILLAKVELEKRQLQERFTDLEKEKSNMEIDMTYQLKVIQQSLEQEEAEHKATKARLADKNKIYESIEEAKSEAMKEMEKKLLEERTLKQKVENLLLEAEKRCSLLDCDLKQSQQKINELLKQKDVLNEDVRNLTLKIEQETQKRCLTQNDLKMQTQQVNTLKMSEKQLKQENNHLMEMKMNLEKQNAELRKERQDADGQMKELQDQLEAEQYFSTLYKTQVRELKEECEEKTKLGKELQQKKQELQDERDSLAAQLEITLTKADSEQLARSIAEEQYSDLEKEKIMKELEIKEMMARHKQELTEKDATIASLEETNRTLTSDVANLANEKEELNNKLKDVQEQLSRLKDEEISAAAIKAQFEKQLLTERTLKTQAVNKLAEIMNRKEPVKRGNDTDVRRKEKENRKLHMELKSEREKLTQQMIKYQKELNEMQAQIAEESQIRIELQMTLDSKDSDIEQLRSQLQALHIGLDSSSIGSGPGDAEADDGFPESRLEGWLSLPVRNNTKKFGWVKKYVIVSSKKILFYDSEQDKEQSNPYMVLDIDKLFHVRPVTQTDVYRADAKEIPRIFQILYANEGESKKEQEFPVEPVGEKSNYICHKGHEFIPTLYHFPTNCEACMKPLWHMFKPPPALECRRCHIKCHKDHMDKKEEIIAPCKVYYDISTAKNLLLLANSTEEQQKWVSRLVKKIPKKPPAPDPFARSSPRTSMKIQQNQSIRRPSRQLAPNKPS
# A-375 = assay: Cytotoxicity against human A-375 cells assessed as cell growth inhibition by MTT assay; format: functional, cell-based
# MCF7 [9] = assay: Cytotoxicity against human MCF7 cells assessed as cell growth inhibition by MTT assay; format: functional, cell-based
# HepG2 [10] = assay: Cytotoxicity against human HepG2 cells assessed as cell growth inhibition by MTT assay; format: functional, cell-based
# A549 [11] = assay: Cytotoxicity against human A549 cells assessed as cell growth inhibition by MTT assay; format: functional, cell-based
# P388 = assay: Cytotoxicity against mouse P388 cells assessed as cell growth inhibition measured after 72 hrs by MTT assay; format: functional, cell-based
# OS-RC-2 = assay: Antiproliferative activity against human OS-RC-2 cells assessed as cell growth inhibition measured after 72 hrs by CCK-8 assay; format: functional, cell-based; conditions: OS-RC-2, 72 h
# Candida albicans = assay: Antifungal activity against Candida albicans assessed as fungal growth inhibition measured after 20 hrs; format: functional
# [12] = Toxicity in brine shrimp assessed as induction of lethality; conditions: artemia salina; read-out: LD50 (the source's name)
# HepG2 [13] = assay: Cytotoxicity against human HepG2 cells assessed as cell growth inhibition; format: functional
# MCF7 [14] = assay: Cytotoxicity against human MCF7 cells assessed as cell growth inhibition; format: functional, cell-based
# [15] = Cytotoxicity against human HM02 cells assessed as cell growth inhibition; format: functional
# [16] = molecular target: Prostaglandin G/H synthase 2 (Homo sapiens) (UniProt P35354); assay: Inhibition of COX2 (unknown origin) at 20 nM relative to control
# Prostaglandin G/H synthase 2 (Homo sapiens), sequence (P35354 whole entry, looked up): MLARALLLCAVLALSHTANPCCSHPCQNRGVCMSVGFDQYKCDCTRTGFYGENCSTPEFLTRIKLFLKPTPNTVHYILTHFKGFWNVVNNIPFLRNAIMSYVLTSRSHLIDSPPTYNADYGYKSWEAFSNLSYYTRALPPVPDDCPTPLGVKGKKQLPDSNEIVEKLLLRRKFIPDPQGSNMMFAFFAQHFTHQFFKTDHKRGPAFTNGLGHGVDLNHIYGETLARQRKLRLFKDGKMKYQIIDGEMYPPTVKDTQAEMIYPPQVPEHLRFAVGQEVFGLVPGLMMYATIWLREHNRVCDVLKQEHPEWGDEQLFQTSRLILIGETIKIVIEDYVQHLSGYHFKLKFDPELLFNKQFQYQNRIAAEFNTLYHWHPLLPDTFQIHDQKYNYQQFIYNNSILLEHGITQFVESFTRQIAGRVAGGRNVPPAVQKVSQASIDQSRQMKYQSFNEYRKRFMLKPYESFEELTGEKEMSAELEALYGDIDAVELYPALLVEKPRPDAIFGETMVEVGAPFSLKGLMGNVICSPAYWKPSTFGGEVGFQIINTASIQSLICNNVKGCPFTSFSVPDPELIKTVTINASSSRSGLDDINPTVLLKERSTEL
# Staphylococcus aureus = assay: Antibacterial activity against Staphylococcus aureus ATCC 25923 assessed as bacterial growth inhibition; format: functional, organism-based
# HL-60 [17] = assay: Cytotoxicity against human HL-60 cells assessed as cell growth inhibition measured after 72 hrs by MTT assay; format: functional, cell-based; conditions: HL-60, 72 h
# A549 [18] = assay: Cytotoxicity against human A549 cells assessed as cell growth inhibition measured after 72 hrs by MTT assay; format: functional, cell-based; conditions: A549, 72 h
# SW-620 = assay: Cytotoxicity against human SW-620 cells assessed as cell growth inhibition by SRB assay; format: functional, cell-based
# HCT-116 [19] = assay: Cytotoxicity against human HCT-116 cells assessed as cell growth inhibition by SRB assay; format: functional, cell-based
# [20] = test system: Trypanosoma brucei brucei; assay: Antitrypanosomal activity against Trypanosoma brucei brucei GUTat3.1 assessed as parasite growth inhibition measured after 24 hrs by alamar blue staining based analysis; format: functional, organism-based; conditions: GUTat3.1, 24 h
# A549 [21] = assay: Antiproliferative activity against human A549 cells assessed as cell growth inhibition by MTT assay; format: functional, cell-based
# HL-60 [22] = assay: Antiproliferative activity against human HL-60 cells assessed as cell growth inhibition by MTT assay; format: functional, cell-based
structure (smiles),measurement,setting,value
CCC(=O)OCc1c(OCC=C(C)C)c(C)cc(OC)c1C(=O)c1c(O)ccc2c1OC(C)(C)C=C2,pIC50,HeLa,5.04
CC(=O)C[C@]1(O)C(=O)C2=C3O[C@H](C)C(C)(C)[C@]3(O)C(=O)c3c(C)cc(O)c(c32)C1=O,pIC50,[1],4.95
CC[C@H]1/C=C/C[C@H](CC(C)C)OC(=O)/C(C)=C\[C@@H]2C(=O)NC3=CC(=O)c4c(cc(C)c(O)c4C(=O)CC1)[C@@]32O,pIC50,SGC-7901,5.33
O=C(NCCCCO)c1ccc(O)c(O)c1,pIC50,[2],5.33
C/C=C/[C@H](O)[C@H](C)/C=C(C)/C=C/C/C(C)=C/Cc1[nH]c(OC)cc(=O)c1C,pIC50,HL-60 [3],> 7.00
CC[C@H]1[C@H]2[C@H](C[C@H]1C)[C@H]1C[C@H]3/C=C/C(=O)C4=C(O)[C@@H](CCCNC(=O)/C=C\C[C@@H]3[C@H]1[C@@H]1O[C@@H]12)NC4=O,pIC50,[4],5.89
C[C@@H]1O[C@@H](Oc2ccc(-c3cc(=O)c4ccc(O[C@H]5C[C@H](O)[C@H](O)[C@H](C)O5)cc4o3)cc2)C[C@H](O)[C@@H]1O,IC50,HCT-116 [5],13.5 µg/mL
same,IC50,A549 [6],13.5 µg/mL
CC(=O)OCCCCNC(=O)c1ccc(O)c(O)c1,pIC50,[2],5.33
C=C1C(=O)CC2OC(=O)C(=C(O)C2CC)CCC2(C)CC(C)C(O2)C(C)C1OC (centres undefined),pIC50,[7],5.62
CCOC(=O)[C@H](Cc1c(O)cc(C)c2c(O)c3c(cc12)[C@@H](O)CCC3=O)C(=O)OC,pIC50,[8],6.02
COc1ccc(C[C@@H]2NC(=O)[C@@]34OC(=O)O/C=C/[C@@](C)(O)C(=O)[C@@H](C)C/C=C/[C@H]3C(O)C(C)=C(C)[C@@H]24)cc1 (some centres undefined),pIC50,A-375,6.33
same,pIC50,MCF7 [9],6.33
same,pIC50,HepG2 [10],6.33
same,pIC50,A549 [11],6.33
C=CC(C)(C)c1[nH]c2ccccc2c1/C=C1\NC(=O)[C@]2(C[C@H](C)C=C[C@@H]2CCc2c(O)cc(CC=C(C)C)c(O)c2C=O)NC1=O (stereo in doubt; 251),pIC50,"P388; Mus musculus, P388, 72 h",5.46
C/C=C/C=C/CCc1c(O)ccc(O)c1COC,pIC50,[7],4.75
C/C=C(\C)[C@H](O)[C@H](C)/C=C(/C=C/C/C(C)=C/Cc1nc(OC)c(OC)c(O)c1C)CC,pIC50,OS-RC-2,5.35
CCOC(=O)[C@@H](Cc1c(O)cc(C)c2c(O)c3c(cc12)[C@@H](O)CCC3=O)C(=O)OC,pIC50,[8],6.02
C[C@@H]1O[C@@H](Oc2ccc3c(c2)OCC(c2ccc(O)cc2)C3=O)C[C@H](O)[C@@H]1O (some centres undefined),IC50,HCT-116 [5],13.5 µg/mL
same,IC50,A549 [6],13.5 µg/mL
CCCCCC[C@H]1C(=O)O[C@H](C)[C@H](NC(=O)c2cccc(NC=O)c2O)C(=O)O[C@@H](C)[C@@H]1OC(C)=O,MIC,Candida albicans,5 µg/mL
COc1ccc(C[C@@H]2NC(=O)[C@@]34OC(=O)O/C=C/[C@@](C)(O)C(=O)[C@@H](C)C/C=C/[C@H]3[C@@H]3O[C@]3(C)[C@@H](C)[C@@H]24)cc1,pIC50,A-375,6.33
same,pIC50,MCF7 [9],6.33
same,pIC50,HepG2 [10],6.33
same,pIC50,A549 [11],6.33
CCC/C=C/[C@@H]1Cc2cc(O)c(C)c(O)c2C(=O)O1,LC50,[12],18.6 µg/mL
CC1=CC(=O)[C@H]2C(C)(C)CCC[C@]2(C)[C@@]1(O)C=O,pIC50,"P388; Mus musculus, P388, 72 h",5.06
CCCCC[C@H]1C(=O)O[C@H](C)[C@H](NC(=O)c2cccc(NC=O)c2O)C(=O)O[C@@H](C)[C@@H]1OC(=O)[C@@H](C)C(C)C,MIC,Candida albicans,5 µg/mL
CC(C)CCC[C@H]1CCCCC(=O)O1,GI50,HepG2 [13],0.11 µg/mL
same,GI50,MCF7 [14],0.11 µg/mL
same,GI50,[15],0.11 µg/mL
COc1nc(C/C=C(\C)C/C=C/C(C)=C/[C@@H](C)/C=C(\C)[C@H](C)O)c(C)c(O)c1OC,pIC50,HL-60 [3],> 7.00
O=C(O)CCCNC(=O)c1ccc(O)c(O)c1,pIC50,[2],5.33
CCOC(=O)[C@]1(Cc2ccccc2)OC(=O)C(O)C1c1ccc(O)cc1 (some centres undefined),inhibition,[16],98.3%
CCCCC[C@@H]1Cc2cc(O)c(C)c(O)c2C(=O)O1,LC50,[12],7.7 µg/mL
C/C=C/[C@H](OC)[C@H](C)/C=C(C)/C=C/C/C(C)=C/Cc1nc(OC)c(OC)c(O)c1C,pIC50,HL-60 [3],> 7.00
O=C1OC(Cc2ccc(O)cc2)C(c2ccc(O)cc2)C1O (centres undefined),pIC50,Staphylococcus aureus,4.76
CC(C)=CCc1cc(C[C@@]2(CC=C(C)C)OC(=O)C(O)C2c2ccccc2)ccc1O (some centres undefined),inhibition,[16],66.3%
CC[C@H](C)CCC[C@H]1CCCCC(=O)O1,GI50,HepG2 [13],0.11 µg/mL
same,GI50,MCF7 [14],0.11 µg/mL
same,GI50,[15],0.11 µg/mL
CC1(C)C=Cc2c(ccc3c4c(n(O)c23)C(C)(C)[C@H]2C[C@]35CCCN3C(=O)[C@@]2(C4)NC5=O)O1,pIC50,HL-60 [17],5.35
same,pIC50,A549 [18],5.73
CCCCC[C@@H]1Cc2cc(O)cc(O)c2C(=O)O1,LC50,[12],36.4 µg/mL
COc1cc(C)c2c(O)c3c(cc2c1)[C@@H](O)CCC3=O,pIC50,SW-620,6.20
same,pIC50,HCT-116 [19],6.20
C=CC(C)(C)c1[nH]c2ccccc2c1/C=C1\NC(=O)[C@@]2(C[C@@H](C)C=C[C@@H]2/C=C/c2c(O)cc(CC=C(C)C)c(O)c2C=O)NC1=O,pIC50,"P388; Mus musculus, P388, 72 h",4.95
COc1nc(C/C=C(\C)C/C=C/C(C)=C/[C@@H](C)/C=C/[C@@H](C)OC)c(C)c(O)c1OC,pIC50,HL-60 [3],> 7.00
CC1(C)C=Cc2c(ccc3c2[N+]([O-])=C2C3=C[C@@]34NC(=O)[C@]5(CCCN5C3=O)C[C@@H]4C2(C)C)O1,pIC50,HL-60 [17],5.52
same,pIC50,A549 [18],5.72
CC(=O)/C(=C\c1ccc(O)cc1)OC(Cc1c[nH]c2ccccc12)C(=O)O (centres undefined),pIC50,[20],5.28
C=C(C(C)=O)[C@H](O)[C@H](C)/C=C(C)/C=C/C/C(C)=C/Cc1nc(OC)c(OC)c(O)c1C,pIC50,OS-RC-2,5.66
O=C1O/C(=C\c2ccc(O)cc2)C(O)=C1c1ccc(O)cc1 [ASPULVINONE E],pIC50,Staphylococcus aureus,4.58
CC[C@H]1/C=C/C[C@H](CC(C)C)OC(=O)/C(C)=C\[C@H]2C(=O)NC3=CC(=O)c4c(cc(C)c(O)c4C(=O)CC1)[C@@]32O,pIC50,SGC-7901,5.55
C/C=C/C=C/CCc1c(O)ccc(O)c1CO,pIC50,[7],5.03
C[C@@H]1O[C@@H](Oc2ccc(C3COc4cc(O)ccc4C3=O)cc2)C[C@H](O)[C@@H]1O (some centres undefined),IC50,HCT-116 [5],13.5 µg/mL
same,IC50,A549 [6],13.5 µg/mL
Cc1cccc2cc3c(c(O)c12)C(=O)CC[C@@H]3O,pIC50,SW-620,6.20
same,pIC50,HCT-116 [19],6.20
C=CC(C)(C)c1[nH]c2ccccc2c1/C=C1\NC(=O)[C@]2(C[C@H](C)C=C[C@@H]2CCc2c(O)cc(CC=C(C)C)c(O)c2C=O)NC1=O (stereo in doubt),pIC50,P388; p388,5.60
O=C(NCCCO)c1ccc(O)c(O)c1,pIC50,[2],5.33
O=C(CNC(=O)c1ccccc1-n1c(=O)[nH]c2ccccc2c1=O)c1ccccc1,inhibition,[16],> 65%
CCOC(=O)[C@]1(Cc2ccc(O)c(CC3OC3(C)C)c2)OC(=O)C(O)C1c1ccc(O)cc1 (some centres undefined),pIC50,Staphylococcus aureus,4.67
COC1=C(CO)O[C@@H]2C[C@@]1(OC)n1c3ccccc3c3c4c(c5c6ccccc6n2c5c31)C(=O)NC4,pIC50,A549 [21],5.30
same,pIC50,HL-60 [22],5.85
C=C1CCC(C(C)C)C2/C=C(\C(=O)OC)CC/C=C(/C(=O)O)C(O)CC12 (centres undefined),pIC50,HCT-116 [5],4.42
CC[C@H]1[C@@H]2C=C[C@@H]3[C@H]4C/C=C\C(=O)NCCC[C@H]5NC(=O)C(=C5O)C(=O)/C=C/[C@@H]4C[C@@H]3[C@H]2C[C@H]1C,pIC50,[4],5.89
CCCC1C(=O)C2CCC3(C)CC(C)C(O3)C(O)/C=C(\C)C(=O)CC1OC2=O (centres undefined),pIC50,[7],5.62
C=C1C(O)[C@@H]2/C=C/C[C@H](C)C(=O)[C@](C)(O)/C=C/OC(=O)O[C@]23C(=O)N[C@@H](Cc2ccc(OC)cc2)[C@@H]3[C@@H]1C (some centres undefined),pIC50,A-375,6.33
same,pIC50,MCF7 [9],6.33
same,pIC50,HepG2 [10],6.33
same,pIC50,A549 [11],6.33
COC(C)[C@H]1[C@H]2[C@H](C[C@H]1C)[C@H]1C[C@H]3/C=C/C(=O)C4=C(O)[C@@H](CCCNC(=O)/C=C\C[C@@H]3[C@H]1[C@@H]1O[C@@H]12)NC4=O (some centres undefined),pIC50,[4],5.89
